Structures can show the parent of a compound that is named as a salt.
What was measured:
Experiment in all cases: two-electrode voltage clamp, Xenopus oocytes, concentration-response
Assay type in all cases: cell-based
[1] = biological target: T1, CquiOR5 (Culex quinquefasciatus, UniProt A0A3G1T0A9)
T1 sequence (A0A3G1T0A9 1-393): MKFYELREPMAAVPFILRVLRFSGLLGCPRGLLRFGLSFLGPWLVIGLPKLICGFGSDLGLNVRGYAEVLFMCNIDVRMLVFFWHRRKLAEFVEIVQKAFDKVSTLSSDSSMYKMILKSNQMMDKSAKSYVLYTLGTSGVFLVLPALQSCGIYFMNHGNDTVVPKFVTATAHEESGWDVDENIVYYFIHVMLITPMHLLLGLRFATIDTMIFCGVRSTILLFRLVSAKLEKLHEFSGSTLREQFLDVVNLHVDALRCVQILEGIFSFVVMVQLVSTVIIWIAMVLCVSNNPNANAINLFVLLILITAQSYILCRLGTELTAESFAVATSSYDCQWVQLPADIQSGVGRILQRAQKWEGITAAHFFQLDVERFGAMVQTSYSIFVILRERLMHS

[2] = biological target: T2, CquiOR4 (Culex quinquefasciatus, UniProt A0A3G1T0B0)
T2 sequence (A0A3G1T0B0 1-391): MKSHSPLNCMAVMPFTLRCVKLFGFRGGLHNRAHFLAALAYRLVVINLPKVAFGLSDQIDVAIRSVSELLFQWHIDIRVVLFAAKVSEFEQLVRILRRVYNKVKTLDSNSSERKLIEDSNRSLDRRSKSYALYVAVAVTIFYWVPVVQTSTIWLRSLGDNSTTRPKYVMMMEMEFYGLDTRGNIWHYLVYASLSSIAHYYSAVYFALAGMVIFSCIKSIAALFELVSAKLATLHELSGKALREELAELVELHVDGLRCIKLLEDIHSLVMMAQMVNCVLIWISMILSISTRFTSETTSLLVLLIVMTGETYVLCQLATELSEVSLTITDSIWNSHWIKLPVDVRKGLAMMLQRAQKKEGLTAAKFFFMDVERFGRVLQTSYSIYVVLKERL

[3] = biological target: T3, AaegOR15 (Aedes aegypti, UniProt A0A6B9QIR2)
T3 sequence (A0A6B9QIR2 1-390): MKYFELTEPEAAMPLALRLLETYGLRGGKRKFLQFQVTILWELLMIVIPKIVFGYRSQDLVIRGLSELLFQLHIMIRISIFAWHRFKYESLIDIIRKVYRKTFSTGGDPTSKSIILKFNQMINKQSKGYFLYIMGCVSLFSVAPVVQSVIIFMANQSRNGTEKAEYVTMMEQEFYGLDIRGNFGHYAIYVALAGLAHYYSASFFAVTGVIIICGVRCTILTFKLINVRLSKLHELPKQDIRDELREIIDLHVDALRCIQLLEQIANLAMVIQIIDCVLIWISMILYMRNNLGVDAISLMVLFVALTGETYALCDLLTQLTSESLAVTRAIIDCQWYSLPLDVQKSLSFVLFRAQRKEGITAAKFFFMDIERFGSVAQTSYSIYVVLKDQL
T3 sequence (Q178U6 1-478 partner): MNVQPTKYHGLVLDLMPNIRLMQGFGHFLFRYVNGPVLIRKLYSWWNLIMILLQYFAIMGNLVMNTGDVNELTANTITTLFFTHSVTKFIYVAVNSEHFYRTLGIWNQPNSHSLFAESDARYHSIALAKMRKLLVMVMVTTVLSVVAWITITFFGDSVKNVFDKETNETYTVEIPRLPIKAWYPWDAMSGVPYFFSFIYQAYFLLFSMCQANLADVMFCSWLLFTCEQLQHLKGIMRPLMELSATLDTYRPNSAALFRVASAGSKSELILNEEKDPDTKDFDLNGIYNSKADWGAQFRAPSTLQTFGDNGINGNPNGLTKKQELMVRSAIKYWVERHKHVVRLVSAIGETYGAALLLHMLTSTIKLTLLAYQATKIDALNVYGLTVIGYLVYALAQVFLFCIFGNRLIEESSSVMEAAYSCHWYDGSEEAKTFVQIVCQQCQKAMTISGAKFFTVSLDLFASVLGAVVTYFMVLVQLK

[4] = biological target: T2, CquiOR4; remark: listed apart in the source

Row | Compound | two-electrode voltage clamp, Xenopus oocytes, concentration-response [3] | also measured
1 | C=CC(C)(O)CCC=C(C)C (racemic) [linalool] | – | EC50 [1]: 574 nM
2 | OCCc1ccccc1 [2-phenylethanol] | – | EC50 [2]: 28 nM
3 | CC(=O)c1ccccc1 [acetophenone] | AaegOR15/AaegOrco-expressing oocytes generated dose-dependent, robust currents when challenged with phenethyl propionate, phenethyl formate, and acetophenone | –
4 | OCc1ccccc1 [benzyl alcohol] | Concentration-dependent responses of AaegOR15·AaegOrco-expressing oocytes to four major odorants | –
5 | O=COCCc1ccccc1 [phenethyl formate] | AaegOR15/AaegOrco-expressing oocytes generated dose-dependent, robust currents when challenged with phenethyl propionate, phenethyl formate, and acetophenone | –
6 | CCC(=O)OCCc1ccccc1 [phenethyl propionate] | AaegOR15/AaegOrco-expressing oocytes generated dose-dependent, robust currents when challenged with phenethyl propionate, phenethyl formate, and acetophenone | two-electrode voltage clamp, Xenopus oocytes, concentration-response [4]: 2-Phenylethanol, phenethyl formate, and phenethyl propionate were the best ligands for CquiOR4
